# Experiments:
# 3T3-L1 cells = test: WST-1 cell proliferation assay, 3T3-L1 non-tumour cells; assay type: cell-based, mouse
# Method: (§1) THP-1 human monocytic leukemia cell line, MCF-7 human breast adenocarcinoma cells and 3T3-L1 mouse embryonic fibroblast were purchased from the European Collection of Cell Cultures (ECACC, Salisbury, UK). Cells were routinely tested for the absence of mycoplasma (Hoechst 33258 staining method). THP-1 cells were maintained in RPMI 1640 culture medium containing 2 mM L-glutamine; MCF-7 and 3T3-L1 cells were cultured in DMEM medium. All of the culture media were supplemented with 10% heat-inactivated FBS and antibiotics (100 U/mL penicillin and 100 μg/mL streptomycin). Cells were maintained at 37 °C in a humidified atmosphere containing 5% CO2.
# (§2) Cell proliferation was evaluated using Cell Proliferation Reagent WST-1 (2-(4-iodophenyl)-3-(4-nitrophenyl)-5-(2,4-disulfophenyl)-2H-tetrazolium) (Roche Diagnostics, Mannheim, Germany) according to the manufacturer´s instructions. THP-1 (5 × 10^4 cells/100 μL culture medium per well), MCF-7 cells (1 × 10^4 cells/100 μL per well), and 3T3-L1 (2.5 × 10^3 cells/100 μL per well) were cultured in 96-well plates in triplicate. The measurement was performed using Synergy 2 Multi-Mode Microplate Reader (BioTek, Winooski, VT, USA) after 24 h incubation of cells with tested compounds dissolved in DMSO and subsequently in RPMI 1640 to final concentration ranging 0.5–20 μM in the assays. Cell viability was assessed by dye exclusion test. THP-1 (2 × 10^5 cells/mL per well) and MCF-7 cells (8 × 10^4 cells/mL per well) were incubated in 24-well plates with the indicated concentrations of compounds for 24 h. The number of viable cells was determined using hemocytometer after their staining with a solution of erythrosin B (0.1% erythrosin B (w/v) in PBS). The assays were conducted in triplicate. The IC50 and LC50 values were calculated from fitted concentration-response curves using GraphPad Prism 5.00 software (GraphPad Software, San Diego, CA, USA).
# THP-1 cells [1] = test: Annexin V-FITC/PI apoptosis assay by flow cytometry, THP-1; assay type: cell-based, human
# Method: (§3) Staining of cells by Annexin V-FITC conjugate reflects the externalization of phosphatidylserine on the outer surface of the cell membrane as one of the early indicators of apoptosis.
# (§4) Early and late stages of apoptosis were detected using Annexin V-FITC Kit—Apoptosis Detection Kit faccording to the manufacturer´s instructions. […] At each time-point of incubation (12, 18, and 24 h) the cells were washed with ice-cold PBS prior to being resuspended at a concentration of 5 × 10^6 cells/mL in a total volume of 100 μL of 1× binding buffer. Annexin V-FITC solution (final concentration 0.25 μg/mL) and PI (final concentration 12.5 μg/mL) were added to each sample; the cell suspension was kept on ice and incubated for 15 min in the dark. After that, the analysis was carried out by flow cytometry. The data were evaluated using Kaluza Flow Cytometry Analysis 1.2. Per sample, a total number of 2 × 10^4 cells were analysed.
# [2] = as above; assay type: cell-based, human; conditions: human, THP-1 cells, representative dot plot, read-out: quadrant I: viable cells
# Method: as §3, §4
# caspase 9 = test: Western blot of caspase 9 in THP-1 cells; assay type: cell-based, human; conditions: THP-1, 24 h, most pronounced at 10 μM
# Method: (§5) Most of the apoptotic signalling pathways are controlled by caspases that belong to a group of cysteine proteases. To assess whether compound 2 affects these signalling cascades and which pathway is activated (intrinsic or extrinsic), the activities of caspase 3, caspase 9, and caspase 8 were evaluated using Western blot analysis.
# (§6) For Western blotting, cells were washed with PBS and lysed in lysis buffer (100 mM Tris-HCl, pH = 6.8; 20% glycerol; 1% SDS) containing protease and phosphatase inhibitor cocktails. Protein concentration was measured using Roti®-Quant universal (Carl Roth, Karsruhe, Germany) according to the manufacturer’s instructions. Cell lysates were supplemented with bromophenol blue (final concentration 0.01% (w/v)) and β-mercaptoethanol (final concentration 1% (v/v)) prior to being heated for 5 min at 95 °C. Equal amounts of protein (10 μg) were loaded into a 12% polyacrylamide gel, separated by SDS-polyacrylamide gel electrophoresis and subsequently electrotransferred onto nitrocellulose membranes. Reversible Ponceau S. staining was performed to assess equal sample loading. […] The intensity of bands was semi-quantitatively analysed using the ImageJ software (National Institute of Mental Health, Bethesda, MD, USA).
# cyclin E1 = test: Western blot of cyclin E1 in MCF-7 cells; assay type: cell-based, human; conditions: MCF-7, 24 h
# Method: Additionally, the cell cycle analysis allows determining the presence of a subdiploid cell population as a characteristic marker of cells with fractional DNA content. A significant increase (p < 0.001) of the sub-G1 peak was found only after the treatment with 5 µM of compound 2 in THP-1 cells, where an approximately eight-fold increase was observed compared to the drug-free control (Figure 4).
# as §6
# MCF-7 cells = test: WST-1 cell proliferation assay, MCF-7; assay type: cell-based, human
# Method: (§7) Initially, we examined the effect of six nitro-substituted hydroxynaphthanilides on the proliferation of human leukaemia and breast carcinoma cell lines, using Water Soluble Tetrazolium Salts-1 (WST-1) assay. For such analyses, THP-1 and MCF-7 cells were treated with the compounds at concentrations ranging from 0.5 to 20 μM for 24 h. […] The inhibitory effect of 2 and 6 was statistically significant (p < 0.001) starting from the concentration of 2.5 and 5 μM in THP-1 and MCF-7 cells, respectively. From the concentration-response curves, the IC50 values were determined.
# as §1, §2
# caspase 8 = test: Western blot of caspase 8 in THP-1 cells; assay type: cell-based, human; conditions: THP-1, 24 h
# Method: as §5, §6
# caspase 3 = test: Western blot of caspase 3 in THP-1 cells; assay type: cell-based, human; conditions: THP-1, 10 μM, 24 h
# Method: as §5, §6
# THP-1 cells [3] = test: WST-1 cell proliferation assay, THP-1; assay type: cell-based, human
# Method: as §7, §1, §2
smiles,measurement,setting,value
"O=C(Nc1cccc([N+](=O)[O-])c1)c1cc2ccccc2cc1O [Compound 2, 3-hydroxy-N-(3-nitrophenyl)naphthalene-2-carboxamide]",effect on cell proliferation,"3T3-L1 cells; 3T3-L1, 24 h",did not decrease cell growth at any of concentrations used
same,IC50,"3T3-L1 cells; Mus musculus, 3T3-L1, WST-1, 24 h, non-tumour cells, mean ± SD",> 20 µM
same,double-stained (late apoptotic/secondary necrotic) cells,"THP-1 cells [1]; THP-1, 10 µM, 12 h, mean",22.48%
same,proportion of early apoptotic cells,"THP-1 cells [1]; THP-1, 10 µM, 12 h, mean, control 2.41%",9.37%
same,double-stained (late apoptotic/secondary necrotic) cells,"THP-1 cells [1]; THP-1, 10 µM, 24 h, mean",41.88%
same,pro-apoptotic effect,"THP-1 cells [1]; THP-1, 2.5, 5, 10 µM, 12, 18, 24 h",induced a dose-dependent increase of the percentage of early apoptotic as well as late apoptotic/secondary necrotic
same,"viability at 12 h, 2.5 µM","[2]; THP-1, 2.5 μM, 12 h",92.1%
same,"viability at 18 h, 2.5 µM","[2]; THP-1, 2.5 μM, 18 h",90.2%
same,"viability at 24 h, 2.5 µM","[2]; THP-1, 2.5 μM, 24 h",87.8%
same,"viability at 12 h, 5 µM","[2]; THP-1, 5 μM, 12 h",85.8%
same,"viability at 18 h, 5 µM","[2]; THP-1, 5 μM, 18 h",76.7%
same,"viability at 24 h, 5 µM","[2]; THP-1, 5 μM, 24 h",75.7%
same,"viability at 12 h, 10 µM","[2]; THP-1, 10 μM, 12 h",64.9%
same,"viability at 18 h, 10 µM","[2]; THP-1, 10 μM, 18 h",57.2%
same,"viability at 24 h, 10 µM","[2]; THP-1, 10 μM, 24 h",44.6%
same,cleaved caspase 9 levels,caspase 9,significant increase of cleaved caspase 9 levels
same,expression of cyclin E1,cyclin E1,dose-dependent decrease in expression of cyclin E1
same,IC50,"MCF-7 cells; Homo sapiens, MCF7, WST-1, 24 h, 0.5-20 μM, mean ± SD",4.61 ± 0.068 µM
same,effect on cell proliferation,"MCF-7 cells; MCF-7, 0.5-20 μM, 24 h",inhibit cell growth in both cell lines in a dose-dependent manner
same,concentration from which the inhibitory effect on proliferation was statistically significant (p < 0.001),"MCF-7 cells; MCF-7, 24 h",5 µM
same,level of active caspase 8,caspase 8,level of active caspase 8 was not altered
same,decrease of pro-caspase 3 (inactive form) compared to control,caspase 3,approximately two-fold
same,increase of active caspase 3 level in comparison to control,caspase 3,approximately two-fold
same,IC50,"THP-1 cells [3]; Homo sapiens, THP-1, WST-1, 24 h, 0.5-20 μM, mean ± SD",3.06 ± 0.206 µM
same,effect on cell proliferation,"THP-1 cells [3]; THP-1, 0.5-20 μM, 24 h",inhibit cell growth in both cell lines in a dose-dependent manner
same,concentration from which the inhibitory effect on proliferation was statistically significant (p < 0.001),"THP-1 cells [3]; THP-1, 24 h",2.5 µM

# From article PMC5000617, “Antiproliferative and Pro-Apoptotic Effect of Novel Nitro-Substituted Hydroxynaphthanilides on Human Cancer Cell Lines” (International Journal of Molecular Sciences, 2016)
